Source: the NIST ThermoML archive (doi:10.1021/acs.jced.6b00828)
± gives the expanded uncertainty stated by the source. Values belong to the compound of their own block, whether it stands above or below them.

Experiment: wn = mass fraction of the nth substance listed
Conditions: 323.15 K, 101.3 kPa, Liquid, Vibrating tube method

Structure (SMILES): O=[PH2][O-].[Na+] [sodium phosphinate] + O
mass density (w1 = 0.5786): 1438.8 ± 1.1 kg/m3

Structure (SMILES): O=[PH2][O-].O=[PH2][O-].[Mg+2] [magnesium hypophosphite] + O
mass density (w1 = 0.2243): 1167.5 ± 0.4 kg/m3

mass density (w1 = 0.3732): 1343.2 ± 0.9 kg/m3
Structure (SMILES): [Cl-].[Cl-].[Mg+2] [magnesium chloride] + O
